Blank lines part the entries; values can stand above or below the substance they belong to. Where no end group is shown, it is not given here. The star is where a group is joined. Biotin = O=C1N[C@H]2[C@H](CS[C@H]2CCCCC(=O)*)N1
What was measured:
[1] = tested on: HL-60 cells differentiated into the neutrophil-like cells; test: β-hexosaminidase-secreting activity of neutrophil-like differentiated HL-60 cells; assay type: cell-based, human; settings: differentiated HL-60 cells; read-out: EC50, β-hexosaminidase-secreting activity
In short: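 HL-60 cells were differentiated with 500 μM db-cAMP for 3 days at 37 °C, then stimulated with peptide for 10 min in HBHS/0.1% BSA, pH 7.4, containing 5 μg/ml cytochalasin B and DNase I. Released β-hexosaminidase was read at 405 nm after p-nitrophenyl-N-acetylglucosaminide hydrolysis (pH 4.5, 37 °C, 1 h). Secretion is expressed relative to 10 μM fMLP, with total enzyme from 0.05% Triton X-100 lysis.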

[2] = tested on: differentiated HL-60 cells; test: migration activity (Chemotaxis Index) of differentiated HL-60 cells; assay type: cell-based, human
Method: (3) Measurement of Migration Activity
The cells were collected by centrifuging the suspension of the differentiated HL-60 cells (1,000 rpm, 5 minutes, 4° C.). After that, the following operation was repeated three times to wash the cells: 10% FBS-RPMI1640 was added to the cells; the mixture was suspended by inversion; and the mixture was centrifuged again (1,000 rpm, 5 minutes, 4° C.). Then, a medium (10% FBS-RPMI1640) was added so that a cell density was 4×10^6 cells/ml, thereby a cell suspension was prepared. Subsequently, 1 ml of each peptide solution (dissolved in 10% FBS-RPMI 1640) was transferred to each well of a 24-well plate, and the plate was incubated at 37° C. for 20 minutes. After that, 500 μl of the cell suspension (2×10^6 cells) were put in Chemotaxicell (KURABO […] LTD., 3 μm) and the Chemotaxicell was set in a plate, followed by incubation in the presence of 5% CO2 at 37° C. for 1 hour. Then, the Chemotaxicell was removed and the solution in each well of the plate was pipetted. The cells migrated to the plate side was suspended well and the number of the cells were measured. Note that the migration activity by the peptide was represented by a ratio of the number of the cells to the number of the cells passing the Chemotaxicell at the time of non-stimulation (Chemotaxis Index, CI).

[3] = tested on: G protein in the differentiated HL-60 cell membrane fraction; test: G protein activation ability (GTP hydrolysis) in cell membrane fraction; assay type: biochemical, human
Method: (4) Measurement of G Protein Activation Ability
The cells were collected by centrifuging the suspension of the differentiated HL-60 cells (1,000 rpm, 5 minutes, 4° C.). After that, the following operation was repeated three times to wash the cells: ice-cooled PBS was added to the cells; the mixture was suspended by inversion; and the mixture was centrifuged (1,000 rpm, 5 minutes, 4° C.). Then, the precipitated cells were suspended in a buffer for preparing a cell membrane fraction (20 mM Tris-HCl, 250 mM sucrose, 1.5 mM MgCl2, 3 mM benzamidine hydrochloride monohydrate, 1 μM leupeptin, 1 μM PMSF, 2 μg/ml trypsin inhibitor, pH 7.5) and a cell homogenate was prepared using nitrogen pressing-depressing type cell homogenizing apparatus (nitrogen pressure: 350 psi). After that, the resultant was ultracentrifuged (20,000 g, 4° C., 30 minutes) to remove the supernatant, and the precipitate was suspended in a membrane fraction buffer (20 mM Tris-HCl, 1 mM EDTA, 1 mM DTT, 77.5 mTIU/ml aprotinin, pH 7.5) and used as a cell membrane fraction. After dispensed, the cell membrane fraction was stored at −80° C. The activity of the G protein was quantified using the activity to hydrolyze GTP to GDP as an index. […] The mixture was centrifuged (15,000 rpm, 1 minute, 4° C.), and the radioactivity of the supernatant was measured.

bovine Gi1-G protein = target: T1, bovine Gi1-G protein (Bos taurus, UniProt P63097); test: G protein activation ability (GTP hydrolysis) with purified Gi1; assay type: biochemical
T1 construct: made in house; host or cells: E. coli
T1 sequence (P63097 whole entry): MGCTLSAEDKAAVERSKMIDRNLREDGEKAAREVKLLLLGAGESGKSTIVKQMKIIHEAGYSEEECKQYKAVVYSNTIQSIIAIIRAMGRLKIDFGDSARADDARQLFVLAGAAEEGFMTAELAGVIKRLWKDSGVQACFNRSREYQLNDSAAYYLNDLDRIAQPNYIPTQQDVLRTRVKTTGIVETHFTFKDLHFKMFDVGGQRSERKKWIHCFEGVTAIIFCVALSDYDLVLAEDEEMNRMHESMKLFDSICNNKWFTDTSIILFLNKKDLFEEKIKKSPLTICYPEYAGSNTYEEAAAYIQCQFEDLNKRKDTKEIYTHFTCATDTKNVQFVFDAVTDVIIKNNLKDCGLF

[4] = tested on: neutrophil-like differentiated HL-60 cells; test: binding of biotinylated peptides to cell surfaces (streptavidin-Alexa488 fluorescence microscopy); set-up: species or system human; settings: peptide 10 μM, 37° C., 30 minutes
Method: (§1) Thus, it was confirmed that the synthesized functional peptide derivatives had the activities. Therefore, subsequently, in order to identify the binding sites of the functional peptides in the cells, these peptides (final concentration 10 μM) were incubated with the neutrophil-like differentiated HL-60 cells or undifferentiated HL-60 cells prepared in Example 3-(3) at 37° C. for 30 minutes. After that, the obtained cell suspension was centrifuged (1,000 rpm, 5 minutes, 4° C.) and the supernatant was removed. Further, HBHS was added and the mixture was centrifuged to wash the cells. Then, the cells were resuspended in HBHS. A streptavidin-HBHS labeled with a fluorescence, Alexa488 (Molecular probe, Invitrogen Corporation.) was added thereto, and the mixture was centrifuged, and the supernatant was removed. Further, the following operation was repeated three times to wash the cells: HBHS was added and the mixture was centrifuged.

[5] = target: T2, heat shock 70 kDa protein 8 isoform 1 (SEQ ID NO: 52) (Homo sapiens, UniProt P11142); test: chemical crosslinking experiment, streptavidin beads, electrophoresis (receptor identification); assay type: binding; settings: peptide 10 μM; for bands of specifically binding proteins in SDS gel electrophoresis: differentiated HL-60 cell lysate, silver stain
T2 construct: endogenous in cells; host or cells: neutrophil-like differentiated HL-60 cells
T2 sequence (P11142 whole entry, canonical isoform): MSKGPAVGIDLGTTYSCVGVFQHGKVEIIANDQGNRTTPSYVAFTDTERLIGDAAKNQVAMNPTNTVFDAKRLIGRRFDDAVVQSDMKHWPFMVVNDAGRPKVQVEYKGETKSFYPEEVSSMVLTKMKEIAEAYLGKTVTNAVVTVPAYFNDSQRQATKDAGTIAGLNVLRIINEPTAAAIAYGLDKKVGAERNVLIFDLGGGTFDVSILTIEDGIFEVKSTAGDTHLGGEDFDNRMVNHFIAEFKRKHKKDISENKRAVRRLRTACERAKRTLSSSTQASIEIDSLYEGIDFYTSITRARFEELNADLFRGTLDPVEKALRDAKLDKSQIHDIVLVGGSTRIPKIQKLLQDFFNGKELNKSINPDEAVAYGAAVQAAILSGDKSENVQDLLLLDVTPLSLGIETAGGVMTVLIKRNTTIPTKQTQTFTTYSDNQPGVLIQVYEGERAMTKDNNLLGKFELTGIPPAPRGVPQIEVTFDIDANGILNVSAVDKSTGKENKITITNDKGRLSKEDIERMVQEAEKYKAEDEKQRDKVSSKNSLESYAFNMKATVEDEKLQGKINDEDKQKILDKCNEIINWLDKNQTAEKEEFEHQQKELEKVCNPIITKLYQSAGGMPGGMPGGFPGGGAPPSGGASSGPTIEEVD
Method: Then, in order to identify directly the receptor molecules to which these functional peptides are bound, the following chemical crosslinking experiment was performed. That is, the HL-60 cells differentiated into the neutrophil-like cells were suspended in HBHS (not containing 0.1% BSA). The suspension was centrifuged (1,000 rpm, 5 minutes, 4° C.) and the supernatant was removed. The cells were suspended again in the HBHS not containing BSA so as to have the cell density of 5.6×10^6 cells/ml. The obtained cell suspension was preincubated at 37° C. for 10 minutes at first, and 1/10 volume of mitocryptide-3 and -5, [Cys^0]mitocryptide-3, [Cys^0]mitocryptide-5, [Cys^24]mitocryptide-3, and peptides obtained by introducing biotin into the N terminals thereof (N-biotinyl-mitocryptide-3, N-biotinyl-mitocryptide-5, N-biotinyl-[Cys^0]mitocryptide-3, N-biotinyl-[Cys^0]mitocryptide-5, and N-biotinyl-[Cys^24]mitocryptide-3) were added to have the final concentration of 10 μM, followed by incubation at 37° C. for 30 minutes. After that, the cell suspension was centrifuged (5,000 rpm, 4° C., 1 minute) and the supernatant was removed. The resultant cells were resuspended in HBHS not containing BSA and centrifuged again to wash the cells. 1 ml of a buffer for dissolving cells (100 mM NaCl, 20 mM Tris-HCl, 1 mM EDTA, 77.5 mTIU/ml aprotinin, 1 μM leupeptin, 1 μg/ml pepstatin A, 1 μg/ml phosphoramidone, 1% CHAPS, pH 7.5) with respect to 1 ml of the original cell suspension was added to the cell precipitate, and the mixture was incubated at 4° C. for 30 minutes to dissolve the cells, thereby a cell lysate was prepared. The cell lysate was centrifuged (15,000 rpm, 4° C., 15 minutes) and the supernatant was centrifuged again in the same condition. The obtained supernatant was incubated with streptavidin beads at 4° C. for 30 minutes, then, the beads were washed by centrifugation with the buffer for dissolving cells three times. Further, the beads were treated by heat at 100° C. for 10 minutes in the buffer for dissolving cells, and the mixture was centrifuged. The obtained supernatant was subjected to an SDS gel electrophoresis to separate the contained protein. Then, the gel was stained by silver stain method, thereby the proteins were analyzed. […] As a result, two specific spots were detected (FIG. 15-A). Therefore, the protein was extracted and degraded with trypsin, and then, the degraded proteins were analyzed by mass spectrometry.

[6] = tested on: undifferentiated HL-60 cells; test: binding of biotinylated peptides to cell surfaces (streptavidin-Alexa488 fluorescence microscopy); set-up: species or system human; settings: peptide 10 μM, 37° C., 30 minutes
Method: as §1

Substance: MFPLVKSALNRLQVRSIQQTMARQ [No. 015]
- EC50 [1]: 380 nM
- concentration of migration activity compared with that of β-hexosaminidase-secreting activity [2]: confirmed at the almost same concentration
- desensitization of migration activity with increasing concentration of the peptide [2]: subjected to desensitization completely
- activation of G protein [3]: activated
- activation of purified Gi1 protein (bovine Gi1-G protein): activated

Substance: N-biotinyl-Cys-Gln-Leu-Trp-Ala-Val-Gly-Ser-Phe-Met-NH2 (Biotin-CQLWAVGSFM-NH2; SMILES CSCC[C@H](NC(=O)[C@H](Cc1ccccc1)NC(=O)[C@H](CO)NC(=O)CNC(=O)[C@@H](NC(=O)[C@H](C)NC(=O)[C@H](Cc1c[nH]c2ccccc12)NC(=O)[C@H](CC(C)C)NC(=O)[C@H](CCC(N)=O)NC(=O)[C@H](CS)NC(=O)CCCC[C@@H]1SC[C@@H]2NC(=O)N[C@@H]21)C(C)C)C(N)=O) [reference compound]
- binding to cell surfaces [4]: no binding was confirmed at all

Substance: N-biotinyl-[Cys^0]mitocryptide-5: [Cys^0]mitocryptide-5 with biotin introduced into the N terminal (Biotin-CMFPLVKSALNRLQVRSIQQTMARQ)
- binding to cell surfaces [4]: bound to the surfaces of the cells specifically
- binding of heat shock 70 kDa protein 8 isoform 1 to the peptide ([5]; differentiated HL-60 cells): bound

Now from value to substance, other results behind:

- bands of specifically binding proteins in SDS gel electrophoresis [5]: five bands indicating specific binding
Substance: N-biotinyl-[Cys^0]mitocryptide-3: [Cys^0]mitocryptide-3 with biotin introduced into the N terminal (Biotin-CMLWNLLALHQIGQRTISTASHRH)
- binding to cell surfaces [4]: bound to the surfaces of the neutrophil-like differentiated HL-60 cells specifically
- binding to cell surfaces [6]: less bound to the surfaces of the undifferentiated HL-60 cells

- bands of specifically binding proteins in SDS gel electrophoresis [5]: five bands indicating specific binding
Substance: N-biotinyl-[Cys^24]mitocryptide-3: [Cys^24]mitocryptide-3 with biotin introduced into the N terminal (Biotin-MLWNLLALHQIGQRTISTASHRHC)
